Data taken from patent US20040063662A1, “Selenophene anti-tumor agents” (priority 1996, published 2004).

What was measured:
SN12C = assay: NCI human tumor cell panel: SN12C (Renal Cancer); type: cell-based
786-0 = assay: NCI human tumor cell panel: 786-0 (Renal Cancer); type: cell-based
SF-295 = assay: NCI human tumor cell panel: SF-295 (CNS Cancer); type: cell-based
K-562 = assay: NCI human tumor cell panel: K-562 (Leukemia); type: cell-based
BT-549 = assay: NCI human tumor cell panel: BT-549 (Breast Cancer); type: cell-based
OVCAR-4 = assay: NCI human tumor cell panel: OVCAR-4 (Ovarian Cancer); type: cell-based
OVCAR-5 = assay: NCI human tumor cell panel: OVCAR-5 (Ovarian Cancer); type: cell-based
NCI-H23 = assay: NCI human tumor cell panel: NCI-H23 (Non-Small Cell Lung Cancer); type: cell-based
MALME-3M = assay: NCI human tumor cell panel: MALME-3M (Melanoma); type: cell-based; conditions: Malme-3M
A549/ATCC = assay: NCI human tumor cell panel: A549/ATCC (Non-Small Cell Lung Cancer); type: cell-based
HT29 = assay: NCI human tumor cell panel: HT29 (Colon Cancer); type: cell-based; conditions: HT-29, HT29, read-out: Log10 TGI (converted)
EKVX = assay: NCI human tumor cell panel: EKVX (Non-Small Cell Lung Cancer); type: cell-based
OVCAR-8 = assay: NCI human tumor cell panel: OVCAR-8 (Ovarian Cancer); type: cell-based
MOLT-4 = assay: NCI human tumor cell panel: MOLT-4 (Leukemia); type: cell-based
SR = assay: NCI human tumor cell panel: SR (Leukemia); type: cell-based
SW-620 = assay: NCI human tumor cell panel: SW-620 (Colon Cancer); type: cell-based
HCT-15 = assay: NCI human tumor cell panel: HCT-15 (Colon Cancer); type: cell-based
TK-10 = assay: NCI human tumor cell panel: TK-10 (Renal Cancer); type: cell-based
LOX IMVI = assay: NCI human tumor cell panel: LOX IMVI (Melanoma); type: cell-based
HOP-92 = assay: NCI human tumor cell panel: HOP-92 (Non-Small Cell Lung Cancer)
A498 = assay: NCI human tumor cell panel: A498 (Renal Cancer); type: cell-based
NCI-H460 = assay: NCI human tumor cell panel: NCI-H460 (Non-Small Cell Lung Cancer); type: cell-based
HS 578T = assay: NCI human tumor cell panel: HS 578T (Breast Cancer); type: cell-based
PC-3 = assay: NCI human tumor cell panel: PC-3 (Prostate Cancer); type: cell-based
MCF7/ADR-RES = assay: NCI human tumor cell panel: MCF7/ADR-RES (Breast Cancer); type: cell-based
HOP-62 = assay: NCI human tumor cell panel: HOP-62 (Non-Small Cell Lung Cancer); type: cell-based
UACC-257 = assay: NCI human tumor cell panel: UACC-257 (Melanoma); type: cell-based
UACC-62 = assay: NCI human tumor cell panel: UACC-62 (Melanoma); type: cell-based
KM12 = assay: NCI human tumor cell panel: KM12 (Colon Cancer); type: cell-based
HCT-116 = assay: NCI human tumor cell panel: HCT-116 (Colon Cancer); type: cell-based
ACHN = assay: NCI human tumor cell panel: ACHN (Renal Cancer); type: cell-based
[1] = read-out: Log10 GI50 (converted)
[2] = read-out: Log10 TGI (converted)

In the case of `OCc1ccc(-c2ccc(-c3ccc(CO)s3)[se]2)s1` [compound 675343], the GI50 (SN12C; [1]) is reported as over 100 µM, the IC (TGI) (SN12C; [2]) is reported as over 100 µM and the GI50 (786-0; 786-0, read-out: Log10 GI50 (converted)) is reported as over 100 µM. The IC (TGI) (786-0; 786-0, read-out: Log10 TGI (converted)) was over 100 µM, the GI50 (SF-295; SF-295, read-out: Log10 GI50 (converted)) was over 100 µM and the IC (TGI) (SF-295; SF-295, read-out: Log10 TGI (converted)) was over 100 µM. For the same molecule, the GI50 (K-562; K562, K-562, read-out: Log10 GI50 (converted)) was under 10 nM, the IC (TGI) (K-562; K562, K-562, read-out: Log10 TGI (converted)) was 26.3 µM and the GI50 (BT-549; BT-549, read-out: Log10 GI50 (converted)) was over 100 µM. It also gave an IC (TGI) (BT-549; BT-549, read-out: Log10 TGI (converted)) of over 100 µM, a GI50 (OVCAR-4; OVCAR-4, read-out: Log10 GI50 (converted)) of under 10 nM and an IC (TGI) (OVCAR-4; OVCAR-4, read-out: Log10 TGI (converted)) of over 100 µM. The GI50 (OVCAR-5; OVCAR-5, read-out: Log10 GI50 (converted)) was 158 nM, the IC (TGI) (OVCAR-5; OVCAR-5, read-out: Log10 TGI (converted)) was over 100 µM and the GI50 (NCI-H23; NCI-H23, read-out: Log10 GI50 (converted)) was over 100 µM. The IC (TGI) (NCI-H23; NCI-H23, read-out: Log10 TGI (converted)) was over 100 µM, the GI50 (MALME-3M; [1]) was over 100 µM and the IC (TGI) (MALME-3M; [2]) was over 100 µM. It also gave a GI50 (A549/ATCC; [1]) of over 100 µM, an IC (TGI) (A549/ATCC; [2]) of over 100 µM and an IC (TGI) (HT29) of over 100 µM. It also gave a GI50 (EKVX; [1]) of over 100 µM, an IC (TGI) (EKVX; [2]) of over 100 µM and a GI50 (OVCAR-8; OVCAR-8, read-out: Log10 GI50 (converted)) of under 10 nM. For the same molecule, the IC (TGI) (OVCAR-8; OVCAR-8, read-out: Log10 TGI (converted)) was over 100 µM, the GI50 (MOLT-4; MOLT-4, read-out: Log10 GI50 (converted)) was 28.8 µM and the IC (TGI) (MOLT-4; MOLT-4, read-out: Log10 TGI (converted)) was 87.1 µM. For the same molecule, the GI50 (SR; [1]) was over 100 µM, the IC (TGI) (SR; [2]) was over 100 µM and the GI50 (SW-620; SW-620, read-out: Log10 GI50 (converted)) was under 10 nM. It also gave an IC (TGI) (SW-620; SW-620, read-out: Log10 TGI (converted)) of over 100 µM, a GI50 (HCT-15; HCT-15, read-out: Log10 GI50 (converted)) of over 100 µM and an IC (TGI) (HCT-15; HCT-15, read-out: Log10 TGI (converted)) of over 100 µM. For the same molecule, the GI50 (TK-10; TK-10, read-out: Log10 GI50 (converted)) was under 10 nM, the IC (TGI) (TK-10; TK-10, read-out: Log10 TGI (converted)) was under 0.01 µM and the GI50 (LOX IMVI; [1]) was over 100 µM. The IC (TGI) (LOX IMVI; [2]) was over 100 µM, the GI50 (HOP-92; HOP-92, read-out: Log10 GI50 (converted)) was 40.7 µM and the IC (TGI) (HOP-92; HOP-92, read-out: Log10 TGI) was over 100 µM. For the same molecule, the GI50 (A498; A498, read-out: Log10 GI50 (converted)) was under 10 nM, the IC (TGI) (A498; A498, read-out: Log10 TGI (converted)) was under 0.01 µM and the GI50 (NCI-H460; NCI-H460, read-out: Log10 GI50 (converted)) was under 10 nM. For the same molecule, the IC (TGI) (NCI-H460; NCI-H460, read-out: Log10 TGI (converted)) was over 100 µM, the GI50 (HS 578T; [1]) was over 100 µM and the IC (TGI) (HS 578T; [2]) was over 100 µM. The GI50 (PC-3; PC-3, read-out: Log10 GI50 (converted)) was over 100 µM, the IC (TGI) (PC-3; PC-3, read-out: Log10 TGI (converted)) was over 100 µM and the GI50 (MCF7/ADR-RES; [1]) was over 100 µM. For the same molecule, the IC (TGI) (MCF7/ADR-RES; [2]) was over 100 µM, the GI50 (HOP-62; HOP-62, read-out: Log10 GI50 (converted)) was over 100 µM and the IC (TGI) (HOP-62; HOP-62, read-out: Log10 TGI (converted)) was over 100 µM. It also gave a GI50 (UACC-257; UACC-257, read-out: Log10 GI50 (converted)) of under 10 nM, an IC (TGI) (UACC-257; UACC-257, read-out: Log10 TGI (converted)) of under 0.01 µM and a GI50 (UACC-62; UACC-62, read-out: Log10 GI50 (converted)) of under 10 nM. It also gave an IC (TGI) (UACC-62; UACC-62, read-out: Log10 TGI (converted)) of over 100 µM, a GI50 (KM12; KM12, read-out: Log10 GI50 (converted)) of over 100 µM and an IC (TGI) (KM12; KM12, read-out: Log10 TGI (converted)) of over 100 µM. It also gave a GI50 (HCT-116; HCT-116, read-out: Log10 GI50 (converted)) of under 10 nM, an IC (TGI) (HCT-116; HCT-116, read-out: Log10 TGI (converted)) of over 100 µM and a GI50 (ACHN; [1]) of over 100 µM. The IC (TGI) (ACHN; [2]) was over 100 µM.
